Like-named read-outs stand apart in the source and are kept apart here. Starred links: 1 amine or outer side, 2 acyl side, 3 side chain; linkers in the order of their positions; H or OH if unused. Non-standard residues stand in square brackets, D forms with d. Residues, ends and D or L forms follow the SMILES beside them. *: point of attachment. Phe(4-CF3) = N[C@@H](Cc1ccc(C(F)(F)F)cc1)C(=O)O; NMePhe(3-Cl) = CN[C@@H](Cc1cccc(Cl)c1)C(=O)O; NMeF = CN[C@@H](Cc1ccccc1)C(=O)O; NMeGABA = CN(CCCC(=O)[*:2])[*:1]; NMeI = CC[C@H](C)[C@H](NC)C(=O)O; Aoc(2) = CCCCCC[C@H](N)C(=O)O; NMeL = CN[C@@H](CC(C)C)C(=O)O; NMeV = CN[C@H](C(=O)O)C(C)C; NMeA = CN[C@@H](C)C(=O)O; dNMeA = CN[C@H](C)C(=O)O; β3hA = C[C@H](N)CC(=O)O; Sar = CNCC(=O)O; tBu = CC(C)(C)*
Experiments:
[1] = PAMPA (parallel artificial membrane permeability assay); type: in vitro ADME; conditions: for Papp at 18 hours, 50 µM: PAMPA
How it was run: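 Artificial membrane was 10% (w/v) egg lecithin plus 0.5% (w/v) cholesterol in dodecane on a PVDF filter. A 10 mM DMSO stock was added at 0.5% (v/v) to donor buffer (50 mM MOPSO, pH 6.5, 5.0% glycocholic acid). After 18 h at 37 °C, LC/MS or LC/UV gave donor and acceptor levels for Pe.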

[2] = Metabolic stability in human hepatic microsome; type: in vitro ADME; conditions: microsomes
[3] = pH 7.4, human hepatic microsome, NADPH(+), read-out: CL NADPH(+)
[4] = membrane permeation rate (Pe), 50 mM MOPSO buffer pH 6.5 with 5.0% glycocholic acid, 37° C., 18 hours, read-out: iPAMPA Pe

| SMILES | iPAMPA Pe ([1]; membrane permeation rate (Pe), 50 mM MOPSO buffer pH 6.5 with 5.0% glycocholic acid, 37° C., 18 hours) | microsomal CLint at 1 uM [2, 3] [µL/min/mg] | Papp at 18 hours, 50 µM [1, 4] [×10⁻⁶ cm/s] | Papp at 18 hours, 50 µM ([1]; pH 6.5) [×10⁻⁶ cm/s] | microsomal CLint at 1 uM ([2]; human, pH 7.4, CL NADPH(+)) [µL/min/mg] |
| --- | --- | --- | --- | --- | --- |
| CC[C@H](C)[C@@H]1NC(=O)[C@H](C)N(C)C(=O)[C@@H](C)N(C)C(=O)C[C@H](C)NC(=O)[C@H](CC(C)C)N(C)C(=O)[C@H](C)N(C)C(=O)[C@H](Cc2cccc(Cl)c2)N(C)C(=O)[C@H]([C@@H](C)O)NC(=O)[C@H](Cc2cccc(Cl)c2)N(C)C(=O)[C@H](CC(C)C)N(C)C1=O [DP-811] (cyclo(I[NMeL][NMePhe(3-Cl)]T[NMePhe(3-Cl)][NMeA][NMeL][β3hA][dNMeA][NMeA])) | 7.0E−05 | 241 | – | – | – |
| CC[C@H](C)[C@@H]1NC(=O)[C@H](CC(C)C)N(C)C(=O)[C@H](Cc2cccc(Cl)c2)N(C)C(=O)[C@@H](C(C)C)NC(=O)C[C@H](C)NC(=O)[C@H](CC(C)C)N(C)C(=O)[C@H](C)N(C)C(=O)[C@H]([C@@H](C)O)NC(=O)[C@H](Cc2cccc(Cl)c2)N(C)C(=O)[C@H](C)N(C)C1=O [DP-812] (cyclo(I[NMeA][NMePhe(3-Cl)]T[NMeA][NMeL][β3hA][dV][NMePhe(3-Cl)][NMeL])) | – | 222 | 34 | – | – |
| CC[C@H](C)[C@@H]1NC(=O)[C@H](CC(C)C)N(C)C(=O)[C@H](CC(C)C)N(C)C(=O)[C@@H](C(C)C)NC(=O)C[C@H](C)NC(=O)[C@H](CC(C)C)N(C)C(=O)[C@H](C)N(C)C(=O)[C@H]([C@@H](C)O)NC(=O)[C@H](CC(C)C)N(C)C(=O)[C@H](C)N(C)C1=O [DP-813] (cyclo(I[NMeA][NMeL]T[NMeA][NMeL][β3hA][dV][NMeL][NMeL])) | – | 195 | 30 | – | – |
| CC(C)C[C@@H]1NC(=O)[C@H](C)NC(=O)C[C@H](C)NC(=O)[C@H](C(C)C)N(C)C(=O)[C@H](Cc2ccc(C(F)(F)F)cc2)NC(=O)[C@H](CC(C)C)N(C)C(=O)[C@H]([C@@H](C)O)NC(=O)[C@H](Cc2ccc(C(F)(F)F)cc2)NC(=O)[C@H](C)N(C)C(=O)CNC(=O)[C@H](CC(C)C)N(C)C(=O)[C@H](C)N(C)C1=O [DP-814] (cyclo(AL[NMeA][NMeL]G[NMeA][Phe(4-CF3)]T[NMeL][Phe(4-CF3)][NMeV][β3hA])) | – | 22 | 57 | – | – |
| CC[C@H](C)[C@H]1C(=O)NCC(=O)N[C@@H](C)CC(=O)N(C)[C@H](C)C(=O)N[C@@H](Cc2ccccc2)C(=O)N(C)[C@@H](CC(C)C)C(=O)N[C@@H](COC(C)(C)C)C(=O)N[C@@H](Cc2ccccc2)C(=O)N2CCC[C@H]2C(=O)N[C@@H]([C@@H](C)O)C(=O)N[C@@H](CC(C)C)C(=O)N1C [DP-815] (cyclo(F[NMeL]S(tBu)FPTL[NMeI]G[β3hA][dNMeA])) | – | – | – | 42 | 104 |
| CC[C@H](C)[C@H]1C(=O)N(C)[C@@H](C)C(=O)N(C)[C@@H](CC(C)C)C(=O)N[C@@H](COC(C)(C)C)C(=O)N(C)[C@@H](CC(C)C)C(=O)N[C@@H](C)CC(=O)N(C)[C@@H](C)C(=O)N(C)[C@@H](Cc2ccccc2)C(=O)N[C@@H](C)C(=O)N(C)[C@@H](CC(C)C)C(=O)N[C@@H]([C@@H](C)O)C(=O)N1C [DP-816] (cyclo(A[NMeL]T[NMeI][NMeA][NMeL]S(tBu)[NMeL][β3hA][NMeA][NMeF])) | – | 192 | 32 | – | – |
| CC[C@H](C)[C@H]1C(=O)N(C)[C@@H](C)C(=O)N(C)[C@@H](CC(C)C)C(=O)N[C@@H](COC(C)(C)C)C(=O)N(C)[C@@H](CC(C)C)C(=O)N[C@@H](C)CC(=O)N(C)[C@@H](C)C(=O)N(C)[C@@H](Cc2ccccc2)C(=O)N[C@@H](CC(C)C)C(=O)N(C)[C@@H](CC(C)C)C(=O)N[C@@H]([C@@H](C)O)C(=O)N1C [DP-817] (cyclo(L[NMeL]T[NMeI][NMeA][NMeL]S(tBu)[NMeL][β3hA][NMeA][NMeF])) | – | 165 | 25 | – | – |
| CC(C)C[C@@H]1NC(=O)[C@H](CC(C)C)N(C)C(=O)[C@H](C)NC(=O)[C@H](C(C)C)N(C)C(=O)CN(C)C(=O)[C@H]([C@@H](C)O)NC(=O)[C@H](C)N(C)C(=O)[C@H](CC(C)C)N(C)C(=O)[C@@H](C)NC(=O)C[C@H](C)NC1=O [DP-818] (cyclo(A[NMeL]L[β3hA][dA][NMeL][NMeA]T[Sar][NMeV])) | – | 1 | 2 | – | – |
| CC[C@H](C)[C@@H]1NC(=O)[C@H](C)N(C)C(=O)[C@H]([C@@H](C)O)NC(=O)[C@H](C(C)C)N(C)C(=O)[C@@H](C)N(C)C(=O)C[C@H](C)NC(=O)[C@H](Cc2ccccc2)NC(=O)[C@H](C)NC(=O)[C@H](Cc2ccccc2)N(C)C1=O [DP-819] (cyclo(AF[β3hA][dNMeA][NMeV]T[NMeA]I[NMeF])) | – | 134 | 30 | – | – |
| CC[C@H](C)[C@H]1C(=O)N[C@@H](COC(C)(C)C)C(=O)N(C)[C@@H](C(C)C)C(=O)N[C@@H](C)CC(=O)N(C)[C@@H](C)C(=O)N(C)[C@@H](Cc2ccccc2)C(=O)N[C@@H](CC(C)C)C(=O)N(C)[C@@H](CC(C)C)C(=O)N[C@@H]([C@@H](C)O)C(=O)N(C)CC(=O)N1C [DP-820] (cyclo(L[NMeL]T[Sar][NMeI]S(tBu)[NMeV][β3hA][NMeA][NMeF])) | – | 511 | 48 | – | – |
| CC[C@H](C)[C@H]1C(=O)N[C@@H](COC(C)(C)C)C(=O)N(C)[C@@H](C(C)C)C(=O)N[C@@H](C)CC(=O)N(C)[C@@H](CC(C)C)C(=O)N(C)[C@@H](Cc2ccccc2)C(=O)N[C@@H](CC(C)C)C(=O)N(C)[C@@H](CC(C)C)C(=O)N[C@@H]([C@@H](C)O)C(=O)N(C)CC(=O)N1C [DP-821] (cyclo(L[NMeL]T[Sar][NMeI]S(tBu)[NMeV][β3hA][NMeL][NMeF])) | – | 547 | 62 | – | – |
| CCCCCC[C@@H]1NC(=O)[C@H](Cc2ccccc2)N(C)C(=O)[C@H](C)N(C)C(=O)C[C@H](C)NC(=O)[C@H](C(C)C)N(C)C(=O)[C@H](COC(C)(C)C)NC(=O)[C@H](C)N(C)C(=O)CN(C)C(=O)[C@H]([C@@H](C)O)NC(=O)[C@H](CC(C)C)N(C)C1=O [DP-822] (cyclo([Aoc(2)][NMeL]T[Sar][NMeA]S(tBu)[NMeV][β3hA][NMeA][NMeF])) | – | 518 | 37 | – | – |
| CC[C@H](C)[C@@H]1NC(=O)[C@H](CC(C)C)N(C)C(=O)[C@H](C)NC(=O)CCCN(C)C(=O)C[C@H](C)NC(=O)[C@H]([C@@H](C)O)NC(=O)[C@H](Cc2ccccc2)NC(=O)[C@H](C(C)C)N(C)C(=O)[C@H](CC(C)C)N(C)C1=O [DP-823] (cyclo(A[NMeL]I[NMeL][NMeV]FT[β3hA][NMeGABA])) | – | 254 | 31 | – | – |
| CC[C@H](C)[C@@H]1NC(=O)[C@H](CC(C)C)N(C)C(=O)[C@H](C)NC(=O)CCCN(C)C(=O)C[C@H](C)NC(=O)[C@H]([C@@H](C)O)NC(=O)[C@H](Cc2ccccc2)NC(=O)[C@H](C(C)C)N(C)C(=O)[C@H](Cc2ccccc2)N(C)C1=O [DP-824] (cyclo(A[NMeL]I[NMeF][NMeV]FT[β3hA][NMeGABA])) | – | 501 | 29 | – | – |
| CC(C)C[C@@H]1NC(=O)[C@@H](C(C)C)NC(=O)C[C@H](C)NC(=O)[C@H](CC(C)C)N(C)C(=O)[C@H](CC(C)C)N(C)C(=O)[C@H](Cc2ccc(C(F)(F)F)cc2)NC(=O)[C@H](C)N(C)C(=O)[C@H]([C@@H](C)O)NC1=O [DP-825] (cyclo(LT[NMeA][Phe(4-CF3)][NMeL][NMeL][β3hA][dV])) | – | 168 | 39 | – | – |
| CC[C@H](C)[C@H]1C(=O)N[C@@H](C)CC(=O)N(C)[C@H](C)C(=O)N(C)[C@@H](CC(C)C)C(=O)N[C@@H]([C@@H](C)O)C(=O)N(C)CC(=O)N[C@@H](COC(C)(C)C)C(=O)N(C)[C@@H](CC(C)C)C(=O)N1C [DP-826] (cyclo([NMeI][β3hA][dNMeA][NMeL]T[Sar]S(tBu)[NMeL])) | – | 213 | 30 | – | – |
| CC[C@H](C)[C@H]1C(=O)NCC(=O)N(C)[C@@H](C)C(=O)N[C@@H](CC(C)C)C(=O)N[C@@H](C)CC(=O)N(C)[C@@H](C)C(=O)N[C@@H](CC(C)C)C(=O)N(C)[C@@H](C)C(=O)N[C@@H]([C@@H](C)O)C(=O)N2CCC[C@H]2C(=O)N1C [DP-827] (cyclo(G[NMeA]L[β3hA][NMeA]L[NMeA]TP[NMeI])) | – | – | – | 5.8 | 49 |
| CC[C@H](C)[C@@H]1NC(=O)[C@H](CC(C)C)N(C)C(=O)[C@@H](C(C)C)NC(=O)C[C@H](C)NC(=O)[C@H](CC(C)C)N(C)C(=O)[C@H](C)N(C)C(=O)[C@H]([C@@H](C)O)NC(=O)[C@H](Cc2cccc(Cl)c2)N(C)C(=O)[C@H](C)N(C)C1=O [DP-828] (cyclo(I[NMeA][NMePhe(3-Cl)]T[NMeA][NMeL][β3hA][dV][NMeL])) | – | 154 | 42 | – | – |
| CC(C)C[C@@H]1NC(=O)[C@H](C)NC(=O)C[C@H](C)NC(=O)[C@H](C(C)C)N(C)C(=O)[C@H](CC(C)C)N(C)C(=O)[C@H]([C@@H](C)O)NC(=O)[C@H](Cc2ccc(C(F)(F)F)cc2)NC(=O)[C@H](C)N(C)C(=O)CNC(=O)[C@H](CC(C)C)N(C)C(=O)[C@H](C)N(C)C1=O [DP-829] (cyclo(AL[NMeA][NMeL]G[NMeA][Phe(4-CF3)]T[NMeL][NMeV][β3hA])) | – | 65 | 21 | – | – |

Source: US9409952B2, “Peptide-compound cyclization method” (Chugai Seiyaku Kabushiki Kaisha, priority 2011, dated 2016)
